From patent publication US4946964A, “Photographic compounds” (Polaroid Corporation, priority 1987, dated 1990)

What was measured:
[1] = Arrhenius activation energy (Ea) of release of the PHOTO moiety; type: physicochemical; conditions: log of observed rate constant vs 1/T (° K.)
Method: The rate at which the release reaction increases with temperature is a function of the activation energy. For example, for an increase in temperature from 20° C. to 30° C., it hs been calculated that the reaction rate will increase by a factor of 2 when Ea is 12.2, by a factor of about 3 when Ea is 19.3, by a factor of about 4 when Ea is 24.4 and by a factor of about 5 when Ea is 28.3. […] Typically, for such release reactions with other compounds, when the room temperature release rate is relatively fast, the activation energy tends to be about 10. Accordingly, it is possible to select, according to the invention, for a particular photographic system a compound which has a desired release rate at room temperature, a much slower release rate at lower temperatures and a much higher release rate at higher temperatures.
The Arrhenius activation energy (Ea) was calculated by plotting the log of the observed rate constant vs 1/T (° K.) for each compound.

[2] = release kinetics: t1/2 for cleavage with release of the PHOTO moiety in alkaline solution; type: physicochemical; conditions: 1×10^-4 molar, 30% acetonitrile/0.25N aqueous potassium hydroxide, 22°+0.1° C., 100 µM
Source text: The rate of release of the PHOTO moiety is dependent upon a number of factors. […] The release rate is also dependent upon the hydroxyl ion concentration of the alkaline medium. […] The rate of release is also temperature dependent, that is, the rate increases as the temperature at which processing of the film unit is effected increases. Thus, where PHOTO is a photographic reagent residue for example, the compounds which are utilized according to the invention can provide more uniform sensitometry for the film units of the invention over a wide temperature range of processing. In other words, the sensitometry of such film units can be less temperature dependent than would otherwise be the case.
The release kinetics of the compounds of the invention vary over a wide range. The t1/2 times in solution, i.e., the time required for one-half of the material to undergo cleavage with release of the PHOTO moiety, for some of the compounds illustrated above are shown in Table I. The values were obtained using 1×10^-4 molar concentrations in 30% acetonitrile/0.25N aqueous potassium hydroxide solution at a temperature of 22°+0.1° C.

| t1/2 [2] [s] | t1/2 ([2]; syn isomer) [s] | Structure (SMILES) | Arrhenius activation energy (Ea) [1] [kcal/mol] |
| --- | --- | --- | --- |
| 51.1 |  | ON=C(CSc1nnnn1-c1ccc(O)cc1)CSc1nnnn1-c1ccc(O)cc1 [Compound I] | 21.8 |
| 22.5 |  | CC(CSc1nnnn1-c1ccccc1)=NO [IX] | 26.5 |
| 4 to 6 |  | ON=C(CSc1nnnn1-c1ccccc1)c1ccccc1 [VII] |  |
| 546.0 |  | NC(CSc1nnnn1-c1ccccc1)=NO [XIII] |  |

Further lines, the molecule ahead of its results:

| Structure (SMILES) | t1/2 [2] [s] | t1/2 ([2]; syn isomer) [s] | Arrhenius activation energy (Ea) [1] [kcal/mol] |
| --- | --- | --- | --- |
| ON=C(CSc1nnnn1-c1ccccc1)CSc1nnnn1-c1ccccc1 [III] | 8.9 |  |  |
| ON=CCSc1nnnn1-c1ccccc1 [VIII] | 49.1 | 1020.0 |  |
| CC(CSc1nnnn1-c1ccc(C(C)=NO)cc1)=NO [VI] | 28.9 |  |  |
| CC(CSc1nnnn1-c1ccc(O)cc1)=NO [V] | 40.5 |  |  |
| Cc1ccc(S(=O)(=O)NN=C(CSc2nnnn2-c2ccccc2)c2ccccc2)cc1 [XII] | 165.0 |  |  |
| CS(=O)(=O)Nc1ccc(C(CSc2nnnn2-c2ccccc2)=NO)cc1 [XI] | 7.6 |  |  |
| COc1ccc(C(CSc2nnnn2-c2ccccc2)=NO)cc1 [X] | 4.3 |  | 21.9 |
